Source: patent US9399192B2, “Carbon dioxide absorber and carbon dioxide separation/recovery method using the absorber” (ASAHI KASEI KABUSHIKI KAISHA, priority 2011, dated 2016)
Where two headings read alike, the source gives them in different places.

Assays:
[1] = pH 0.4
[2] = pKb of amine compounds / pKa of weakly acidic compounds calculated from pH of aqueous solution; details: amine compound, aqueous solution at 30° C., calculated from pH of 0.4 M aqueous solution
[3] = physchem; details: aqueous solution
[4] = Evaluation of reactivity of aqueous amine solutions with carbon dioxide; assay type: physicochemical; details: for Absorbed amount at 30° C. (moles CO2/moles N) / Absorbed amount at 90° C. (moles CO2/moles N): aqueous amine 1.81 mol/L (monoamine) or 0.91 mol/L (diamine), CO2 300 mL/min 15 minutes; for CO2 desorption performance (moles CO2/moles N): difference between absorbed amount at 30° C. and at 90° C.
Description: Amine compounds were mixed with water to prepare aqueous amine solutions. At this time, the concentration of monoamine compounds having one amino group was adjusted to 1.81 mol/L, while the concentration of diamine compounds having two amino groups was adjusted to 0.91 mol/L. Carbon dioxide gas was blown into 25 mL aliquots of each aqueous amine solution for 15 minutes at 300 mL/min to allow the amine compound to react with the carbon dioxide. The reactions were carried out at temperatures of 30° C. and 90° C., and the reacted amount was calculated from element ratios of C and N before and after the reaction as measured with the Model TOC-VCP and Model TNM-1 Total Organic Carbon Analyzers (Shimadzu Corp.).
The absorbed amounts are represented by the number of moles of carbon dioxide reacting with respect to 1 mole of amino group, or in other words, moles CO2/moles N.
(§1) Table 7 indicates a comparison of performance when used as an amine compound for a carbon dioxide absorber. Those parameters evaluated as indicators of performance consisted of absorbed amount at 30° C., absorbed amount at 90° C. and heat of reaction. Furthermore, the difference between the absorbed amount at 30° C. and the absorbed amount at 90° C. was taken to represent carbon dioxide desorption performance. Values for heat of reaction are shown in Table 7 after converting to heat of reaction (kJ/mol) per 1 mole of reacted carbon dioxide using a calibration curve obtained when the reacted amount of the amino groups of each amine compound and carbon dioxide reached 0.10 mol CO2/mol N.

[5] = Evaluation of heat of reaction of aqueous amine solutions (C-80 reaction calorimeter, FIG. 9C); assay type: physicochemical; details: 30° C., per 1 mole of reacted CO2 at reacted amount 0.10 mol CO2/mol N
Description: * Evaluation of Heat of Reaction Heat of reaction was measured using the apparatus shown in FIG. 9C with the Model C-80 Reaction calorimeter (Setaram Inc.) 936. A gas circulation normal pressure type cell (stainless steel 31/1415) was used for the cell, and the gas inlet port and outlet port were connected as shown in FIG. 9C. 4 g aliquots of each aqueous amine compound solution were placed in the cell after adjusting to the same concentrations as those used in the aforementioned evaluation of reactivity ([…] in the case of monoamine compounds and […] in the case of diamine compounds) and the cell was then placed in the C-80 Reaction calorimeter. The cell temperature was adjusted to 30° C. and allowed to stabilize. 50 mL of carbon dioxide were injected into a gas syringe 930 from carbon dioxide supplied from a carbon dioxide cylinder 929 by closing a valve 932 followed by opening the valve 932. The reacted amount was then measured based on the change in internal pressure measured with a pressure gauge 933 while measuring the amount of heat generated with the C-80 Reaction calorimeter. The amount of heat generated and reacted amount were calculated in advance using a calibration curve of heat of compression and internal pressure determined in the absence of a sample.
as §1

[6] = assay type: physicochemical
Source text: Thus, Compound A is extremely useful since it is able to reduce volatilization loss when contacting a gas. In addition, the weak basicity per amino group is attributable to the diamine structure. […]. Thus, Compound A is extremely useful since it allows a wide range of materials to be selected for use in the reactor.

Row | Compound | pKb [2] | Absorbed amount at 30° C. (moles CO2/moles N) [4] [moles CO2/moles N] | Absorbed amount at 90° C. (moles CO2/moles N) [4] [moles CO2/moles N] | CO2 desorption performance (moles CO2/moles N) [4] [moles CO2/moles N] | Heat of reaction [5] [kcal/mol] | other results
1 | OCCNCCO [DEA, Diethanolamine] |  |  |  |  |  | pKb [1]: 5.4
2 | C1CNCCN1 [Pz, piperazine] | 4.8 |  |  |  |  | 
3 | CCOB(OCC)OCC [TEB, Triethylborate] |  |  |  |  |  | pKa [3]: 8.1
4 | CCNCCO [EAE, 2-ethylaminoethanol] | 4.4 | 0.631 | 0.279 | 0.352 | 20.8 | 
5 | NCCO [MEA, Monoethanolamine] |  | 0.614 | 0.400 | 0.214 | 21.6 | pKb [1]: 4.7
6 | NC(CO)CO [Example 2A13PD, 2-amino-1,3-propanediol] | 5.6 |  |  |  |  | 
7 | CC(O)CNCC(O)CNCC(C)O (centres unmarked) [BHPP, 1,3-bis(2-hydroxypropylamino)propan-2-ol] |  | 0.498 | 0.213 | 0.285 | 16.3 | 
8 | OB(O)O [Boric acid] |  |  |  |  |  | pKa [3]: 9.2
9 | NCC(O)CN [DAP, 1,3-diaminopropan-2-ol] |  | 0.601 | 0.409 | 0.192 | 20.9 | 
10 | CC(C)NCCO [IPAE, 2-isopropylaminoethanol] | 4.1 |  |  |  |  | 
11 | COB(OC)OC [TMB, Trimethylborate] |  |  |  |  |  | pKa [3]: 8.7
12 | CC(O)CNCC(O)CNCCO (centres unmarked) [HEHPP, 1-(2-hydroxyethylamino)-3-(2-hydroxypropylamino)propan-2-ol] |  | 0.506 | 0.213 | 0.293 | 16.1 | 
13 | OCCNCC(O)CNCCO [BHEP, 1,3-bis(2-hydroxyethylamino)propan-2-ol] |  | 0.516 | 0.214 | 0.302 | 16.1 | vapor pressure [6]: 0.04 mPa; pKb [1]: 6.3
